In ChEMBL document CHEMBL4321870, “Benzophenone Compounds, from a Marine-Derived Strain of the Fungus Pestalotiopsis neglecta, Inhibit Proliferation of Pancreatic Cancer Cells by Targeting the MEK/ERK Pathway” (J Nat Prod, 2019):
Active and inactive are the calls of the source. No cut-off for these calls is given here.

Key:
PANC-1 [1] = experiment: Antiproliferative activity against human PANC1 cells incubated for 72 hrs by MTT assay; type: functional, cell-based; conditions: PANC-1, 72 h
[2] = biological target: T1, Dual specificity mitogen-activated protein kinase kinase; MEK1/2 (Homo sapiens) (UniProt P36507+Q02750); conditions: 10 uM
T1 sequence (P36507 whole entry, looked up): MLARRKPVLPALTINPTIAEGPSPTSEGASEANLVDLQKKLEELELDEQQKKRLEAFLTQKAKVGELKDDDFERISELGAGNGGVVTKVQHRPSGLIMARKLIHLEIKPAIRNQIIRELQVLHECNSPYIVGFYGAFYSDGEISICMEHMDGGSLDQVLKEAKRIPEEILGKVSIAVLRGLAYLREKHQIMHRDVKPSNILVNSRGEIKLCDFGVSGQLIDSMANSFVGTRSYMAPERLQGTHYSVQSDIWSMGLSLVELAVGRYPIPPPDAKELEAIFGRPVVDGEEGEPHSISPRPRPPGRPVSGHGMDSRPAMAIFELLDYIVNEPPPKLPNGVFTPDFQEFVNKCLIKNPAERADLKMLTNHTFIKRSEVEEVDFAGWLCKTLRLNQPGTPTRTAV
T1 sequence (Q02750 whole entry, looked up): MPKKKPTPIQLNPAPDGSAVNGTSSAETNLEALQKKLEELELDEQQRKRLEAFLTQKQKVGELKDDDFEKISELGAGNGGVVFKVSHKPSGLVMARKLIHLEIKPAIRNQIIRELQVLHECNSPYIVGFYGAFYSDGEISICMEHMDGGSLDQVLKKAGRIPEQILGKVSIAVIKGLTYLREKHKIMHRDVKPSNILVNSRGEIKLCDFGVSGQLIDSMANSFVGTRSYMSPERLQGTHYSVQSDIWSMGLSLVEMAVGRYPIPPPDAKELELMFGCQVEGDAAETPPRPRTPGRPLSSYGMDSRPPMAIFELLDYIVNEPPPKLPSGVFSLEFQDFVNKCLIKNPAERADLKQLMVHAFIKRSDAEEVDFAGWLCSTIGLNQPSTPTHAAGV
Description: Inhibition of MEK1/2 in human PANC1 cells assessed as decrease in phosphorylated levels of MEK at S217/221 at 10 uM incubated for 24 hrs by Western blotting analysis

[3] = biological target: T1, Dual specificity mitogen-activated protein kinase kinase; MEK1/2 (Homo sapiens); experiment: Inhibition of MEK1/2 in human PANC1 cells assessed as decrease in phosphorylated levels of ERK(T202/Y204) at 5 uM incubated for 24 hrs by Western blotting analysis; type: cell-based
HepG2 = experiment: Antiproliferative activity against human HepG2 cells incubated for 72 hrs by MTT assay; type: functional, cell-based; conditions: HepG2, 72 h
PANC-1 [4] = experiment: Induction of apoptosis in human PANC1 cells assessed as increase in cleaved caspase-3 level incubated for 24 hrs by Western blot analysis; type: functional, cell-based
[5] = Antiproliferative activity against human MCF cells incubated for 72 hrs by MTT assay; type: functional, cell-based
PANC-1 [6] = experiment: Induction of apoptosis in human PANC1 cells assessed as increase in cleaved PARP level incubated for 24 hrs by Western blot analysis; type: functional, cell-based
PANC-1 [7] = experiment: Inhibition of colony formation in human PANC1 cells incubated for 14 days by crystal violet staining based assay; type: functional, cell-based
DU-145 = experiment: Antiproliferative activity against human DU145 cells incubated for 72 hrs by MTT assay; type: functional, cell-based; conditions: DU-145, 72 h
A549 = experiment: Antiproliferative activity against human A549 cells incubated for 72 hrs by MTT assay; type: functional, cell-based; conditions: A549, 72 h
[8] = biological target: T1, Dual specificity mitogen-activated protein kinase kinase; MEK1/2 (Homo sapiens); experiment: Inhibition of MEK1/2 in human PANC1 cells assessed as decrease in phosphorylated levels of ERK(T202/Y204) in nuclear fraction at 5 uM incubated for 24 hrs by Western blotting analysis; type: cell-based
[9] = biological target: T1, Dual specificity mitogen-activated protein kinase kinase; MEK1/2 (Homo sapiens); experiment: Inhibition of MEK1/2 in human PANC1 cells assessed as decrease in phosphorylated levels of MEK at S217/221 at 5 uM incubated for 24 hrs by Western blotting analysis; type: cell-based
HCT-116 = experiment: Antiproliferative activity against human HCT116 cells incubated for 72 hrs by MTT assay; type: functional, cell-based; conditions: HCT-116, 72 h

SMILES: COc1cc(C)c(Br)c(O)c1C(=O)c1c(C=O)c(O)cc(O)c1CC=C(C)C
- IC50 (PANC-1 [1]): 26 µM

SMILES: CC(C)=CCc1c(O)cc(O)c2c1C(=O)c1c(O)c(Cl)c(C)c(Cl)c1OC2 [PESTALACHLORIDE B]
- IC50 (PANC-1 [1]): > 50 µM

SMILES: COc1cccc(-c2cc(=O)c3ccccc3o2)c1N
- inhibition [2]: Active

SMILES: COc1c(Cl)c(C)c(Cl)c(O)c1C(=O)c1c(C=O)c(O)cc(O)c1CC=C(C)C [PESTALONE]
- IC50 (PANC-1 [1]): 14 µM

SMILES: CC(C)=CCc1c(O)cc(O)c(C=O)c1C(=O)c1c(O)cc(C)c(Cl)c1O
- inhibition [3]: Active
- IC50 (PANC-1 [1]): 7.2 µM
- IC50 (HepG2): 23 µM
- Activity (PANC-1 [4]): Dose-dependent effect
- IC50 [5]: 7.5 µM
- Activity (PANC-1 [6]): Dose-dependent effect
- inhibition (PANC-1 [7]): Dose-dependent effect
- IC50 (DU-145): 14 µM
- IC50 (A549): 7.8 µM
- inhibition [8]: Active
- inhibition [9]: Active
- IC50 (HCT-116): 5.5 µM

SMILES: O=c1[nH]cc(F)c(=O)[nH]1 [FLUOROURACIL]
- IC50 (PANC-1 [1]): 15 µM
- IC50 (HepG2): 2.5 µM
- IC50 [5]: 11 µM
- IC50 (DU-145): 2.5 µM

SMILES: COc1cc(C)c(Cl)c(O)c1C(=O)c1c(C=O)c(O)cc(O)c1CC=C(C)C
- IC50 (PANC-1 [1]): 14 µM
- IC50 (HepG2): 37 µM
- IC50 [5]: 11 µM
- IC50 (DU-145): 21 µM
- IC50 (A549): 14 µM
- IC50 (HCT-116): 10 µM

SMILES: CC(C)=CCc1c(O)cc(O)c(C=O)c1C(=O)c1c(O)cc(C)c(Br)c1O
- inhibition [3]: Active
- IC50 (PANC-1 [1]): 7.6 µM
- Activity (PANC-1 [4]): Dose-dependent effect
- Activity (PANC-1 [6]): Dose-dependent effect
- inhibition (PANC-1 [7]): Dose-dependent effect
- inhibition [8]: Active
- inhibition [9]: Active
